# Test results published in PubChem BioAssay AID504503 (Southern Research Specialized Biocontainment Screening …, 2011).
# Tested on: human PBMC, CCR5-tropic HIV-1 replication, RT activity
# Assay: HIV-1 replication inhibition in human PBMCs, dose response, cell-based, CCR5-tropic HIV-1, primary PBMCs (AID 504503)
row,Structure (SMILES),IC50 [µM]
1,Cc1c2c(=O)n(-c3nc4ccccc4s3)nc-2cc(O)n1Cc1ccc(F)cc1,6.8
2,Cc1c2c(=O)n(-c3nc4ccccc4s3)nc-2cc(O)n1CCC(C)C,5.37
3,Cc1c2c(=O)n(-c3nc4ccccc4s3)nc-2cc(O)n1Cc1ccncc1,1.6
4,Cc1c2c(=O)n(-c3nc4ccccc4s3)nc-2cc(O)n1CCc1cccs1,16.6
5,Cc1c2c(=O)n(-c3nc4ccccc4s3)nc-2cc(O)n1Cc1ccccc1Cl,5.16
6,COc1ccc(Cn2c(O)cc3nn(-c4nc5ccccc5s4)c(=O)c-3c2C)cc1,4.88
7,Cc1c2c(=O)n(-c3nc4ccccc4s3)nc-2cc(O)n1CCc1ccc(O)cc1,1.29
8,Cc1c2c(=O)n(-c3nc4ccccc4s3)nc-2cc(O)n1C1CC1,2.17
9,Cc1c2c(=O)n(-c3nc4ccccc4s3)nc-2cc(O)n1Cc1cccs1,10.5
10,COc1ccc(CCn2c(O)cc3nn(-c4nc5ccccc5s4)c(=O)c-3c2C)cc1,5.11
11,Cc1c2c(=O)n(-c3nc4ccccc4s3)nc-2cc(O)n1Cc1cccnc1,2.82
12,COc1ccccc1Cn1c(O)cc2nn(-c3nc4ccccc4s3)c(=O)c-2c1C,3.93
